Laboratory results taken from ChEMBL document CHEMBL1124529, “Sodium channel binding and anticonvulsant activities for the enantiomers of a bicyclic 2,4-oxazolidinedione and monocyclic models” (J Med Chem, 1989).

Experiments:
[1] = tested on: Mus musculus; experiment: Anticonvulsant activity of the compound, 0.5 hr after administration in maximal electroshock mice model; type: functional
[2] = molecular target: T1, Sodium channel alpha subunits; brain (Types I, II, III) (Rattus norvegicus) (UniProt P04775+P04774+P08104); experiment: Displacement of [3H]BTX-B from rat cerebral cortex voltage-gated sodium channel, 0.5 hr after 500 uM; type: tissue-based
T1 sequence (P04775 whole entry, looked up, other chains not shown): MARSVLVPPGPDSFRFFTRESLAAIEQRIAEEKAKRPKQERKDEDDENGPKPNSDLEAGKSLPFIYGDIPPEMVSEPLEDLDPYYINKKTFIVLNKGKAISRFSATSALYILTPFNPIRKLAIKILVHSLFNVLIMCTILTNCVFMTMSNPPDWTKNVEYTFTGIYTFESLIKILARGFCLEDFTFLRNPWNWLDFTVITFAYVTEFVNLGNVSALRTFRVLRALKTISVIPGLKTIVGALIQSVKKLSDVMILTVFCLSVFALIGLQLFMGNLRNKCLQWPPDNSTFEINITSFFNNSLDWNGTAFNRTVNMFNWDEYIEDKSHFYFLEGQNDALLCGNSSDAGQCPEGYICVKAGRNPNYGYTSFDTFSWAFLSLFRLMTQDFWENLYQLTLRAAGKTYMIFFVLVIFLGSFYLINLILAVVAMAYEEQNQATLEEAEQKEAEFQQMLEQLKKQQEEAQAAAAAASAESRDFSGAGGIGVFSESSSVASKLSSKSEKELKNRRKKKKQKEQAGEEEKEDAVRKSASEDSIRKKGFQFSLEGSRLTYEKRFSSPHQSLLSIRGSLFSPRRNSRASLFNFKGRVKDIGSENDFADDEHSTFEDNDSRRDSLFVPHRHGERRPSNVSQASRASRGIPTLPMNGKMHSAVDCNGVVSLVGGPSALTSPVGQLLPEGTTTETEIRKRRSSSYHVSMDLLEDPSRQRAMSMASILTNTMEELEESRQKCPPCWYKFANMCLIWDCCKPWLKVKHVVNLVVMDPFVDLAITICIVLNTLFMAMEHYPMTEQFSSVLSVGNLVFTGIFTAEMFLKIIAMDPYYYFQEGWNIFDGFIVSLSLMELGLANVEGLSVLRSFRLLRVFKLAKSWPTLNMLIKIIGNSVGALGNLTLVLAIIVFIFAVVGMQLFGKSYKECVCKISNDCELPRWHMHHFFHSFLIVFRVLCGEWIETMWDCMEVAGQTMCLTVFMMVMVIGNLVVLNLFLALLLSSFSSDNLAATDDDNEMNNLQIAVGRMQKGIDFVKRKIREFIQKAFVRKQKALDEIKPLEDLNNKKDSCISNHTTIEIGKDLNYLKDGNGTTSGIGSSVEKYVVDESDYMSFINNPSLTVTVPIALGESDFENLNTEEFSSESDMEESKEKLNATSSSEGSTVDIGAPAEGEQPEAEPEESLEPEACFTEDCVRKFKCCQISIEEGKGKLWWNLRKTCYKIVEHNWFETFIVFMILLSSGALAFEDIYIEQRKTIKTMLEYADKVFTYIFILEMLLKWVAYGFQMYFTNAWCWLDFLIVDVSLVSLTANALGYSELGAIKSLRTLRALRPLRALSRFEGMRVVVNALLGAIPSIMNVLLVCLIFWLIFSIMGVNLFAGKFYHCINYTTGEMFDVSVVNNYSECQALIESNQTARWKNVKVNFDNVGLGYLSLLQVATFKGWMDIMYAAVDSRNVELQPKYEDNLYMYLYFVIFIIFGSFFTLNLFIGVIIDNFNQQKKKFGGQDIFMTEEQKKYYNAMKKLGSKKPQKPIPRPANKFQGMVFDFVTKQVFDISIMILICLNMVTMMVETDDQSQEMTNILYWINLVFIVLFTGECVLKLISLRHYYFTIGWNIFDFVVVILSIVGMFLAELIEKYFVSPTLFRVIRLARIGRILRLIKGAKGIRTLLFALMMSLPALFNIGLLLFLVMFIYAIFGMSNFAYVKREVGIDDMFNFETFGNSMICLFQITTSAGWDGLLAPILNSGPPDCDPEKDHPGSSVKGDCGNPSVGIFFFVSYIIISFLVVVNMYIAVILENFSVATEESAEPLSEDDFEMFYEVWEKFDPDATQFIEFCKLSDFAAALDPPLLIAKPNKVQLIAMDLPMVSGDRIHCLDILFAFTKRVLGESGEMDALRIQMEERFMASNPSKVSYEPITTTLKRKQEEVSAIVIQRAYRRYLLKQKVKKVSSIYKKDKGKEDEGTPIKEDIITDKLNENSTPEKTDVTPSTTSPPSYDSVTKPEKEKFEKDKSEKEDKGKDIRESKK
T1 sequence (P08104 whole entry, looked up, other chains not shown): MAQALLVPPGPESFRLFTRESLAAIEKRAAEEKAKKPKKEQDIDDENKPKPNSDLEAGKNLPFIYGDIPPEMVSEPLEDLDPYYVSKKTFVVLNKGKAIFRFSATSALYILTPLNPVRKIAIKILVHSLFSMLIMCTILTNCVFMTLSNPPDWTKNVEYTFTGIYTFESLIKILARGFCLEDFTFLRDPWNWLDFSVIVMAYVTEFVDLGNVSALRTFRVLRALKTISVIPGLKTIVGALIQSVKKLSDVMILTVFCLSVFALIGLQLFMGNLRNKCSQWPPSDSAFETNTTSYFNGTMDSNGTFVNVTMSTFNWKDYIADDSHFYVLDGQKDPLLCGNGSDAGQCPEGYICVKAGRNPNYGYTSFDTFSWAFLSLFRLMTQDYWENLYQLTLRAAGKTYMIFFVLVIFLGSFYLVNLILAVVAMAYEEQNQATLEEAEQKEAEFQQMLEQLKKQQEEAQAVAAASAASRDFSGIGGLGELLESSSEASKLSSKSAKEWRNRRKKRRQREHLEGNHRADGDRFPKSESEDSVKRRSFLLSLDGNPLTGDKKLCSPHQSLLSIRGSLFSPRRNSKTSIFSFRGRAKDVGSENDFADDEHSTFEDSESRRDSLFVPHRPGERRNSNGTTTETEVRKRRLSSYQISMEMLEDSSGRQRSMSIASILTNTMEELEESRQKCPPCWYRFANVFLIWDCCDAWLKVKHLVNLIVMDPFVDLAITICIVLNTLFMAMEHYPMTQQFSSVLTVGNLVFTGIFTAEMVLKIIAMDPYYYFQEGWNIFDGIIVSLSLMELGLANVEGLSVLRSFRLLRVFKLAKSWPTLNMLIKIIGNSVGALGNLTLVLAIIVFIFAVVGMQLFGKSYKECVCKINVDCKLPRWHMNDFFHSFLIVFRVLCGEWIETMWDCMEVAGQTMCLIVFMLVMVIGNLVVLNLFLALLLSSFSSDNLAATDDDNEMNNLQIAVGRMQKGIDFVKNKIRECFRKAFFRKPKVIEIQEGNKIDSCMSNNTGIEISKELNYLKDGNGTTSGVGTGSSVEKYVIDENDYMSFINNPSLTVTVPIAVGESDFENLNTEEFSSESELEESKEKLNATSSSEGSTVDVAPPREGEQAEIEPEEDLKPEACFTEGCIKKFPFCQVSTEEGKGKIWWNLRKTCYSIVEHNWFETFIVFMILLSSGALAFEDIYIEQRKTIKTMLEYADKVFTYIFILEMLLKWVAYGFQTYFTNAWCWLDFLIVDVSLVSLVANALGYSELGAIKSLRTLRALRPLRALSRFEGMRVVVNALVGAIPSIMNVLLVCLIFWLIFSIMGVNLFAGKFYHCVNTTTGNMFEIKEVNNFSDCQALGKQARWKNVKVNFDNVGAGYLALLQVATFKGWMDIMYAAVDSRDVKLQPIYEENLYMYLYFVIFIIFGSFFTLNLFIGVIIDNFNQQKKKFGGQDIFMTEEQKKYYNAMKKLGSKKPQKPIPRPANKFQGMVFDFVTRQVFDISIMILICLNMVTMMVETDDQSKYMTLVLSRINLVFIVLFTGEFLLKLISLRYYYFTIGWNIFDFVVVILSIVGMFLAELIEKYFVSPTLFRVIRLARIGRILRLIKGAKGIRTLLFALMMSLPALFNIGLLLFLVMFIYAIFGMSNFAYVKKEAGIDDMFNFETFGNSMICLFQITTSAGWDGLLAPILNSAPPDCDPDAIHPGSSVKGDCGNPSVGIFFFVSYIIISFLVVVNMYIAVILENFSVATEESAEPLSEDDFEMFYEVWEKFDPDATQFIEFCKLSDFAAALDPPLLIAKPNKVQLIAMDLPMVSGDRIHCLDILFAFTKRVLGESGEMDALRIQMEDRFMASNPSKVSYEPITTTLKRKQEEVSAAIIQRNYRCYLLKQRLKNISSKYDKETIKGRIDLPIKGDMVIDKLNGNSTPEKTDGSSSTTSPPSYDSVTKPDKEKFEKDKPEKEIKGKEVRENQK

[3] = species: Mus musculus; experiment: Anticonvulsant activity when mice were subjected to maximal electroshock; type: functional
[4] = tested on: Mus musculus; experiment: Anticonvulsant activity of the compound, 0.5 hr after administration of compound in mice subjected to subcutaneous metrazole challenge (85 mg/kg); type: functional; conditions: sc
[5] = Anticonvulsant activity of the compound,0.5 hr after administration in mice subjected to rotarod toxicity test; type: organism-based; conditions: mouse, in vivo
[6] = molecular target: T1, Sodium channel alpha subunits; brain (Types I, II, III) (Rattus norvegicus); experiment: Displacement of [3H]BTX-B from rat cerebral cortex voltage-gated sodium channel, 0.5 hr after 190 uM; type: tissue-based
[7] = Anticonvulsant activity of the compound,0.25 h after administration in mice subjected to rotarod toxicity test; type: organism-based; conditions: mouse, in vivo
[8] = molecular target: T1, Sodium channel alpha subunits; brain (Types I, II, III) (Rattus norvegicus); experiment: Displacement of [3H]BTX-B from rat cerebral cortex voltage-gated sodium channel, 0.25 hr after 160 uM; type: tissue-based

Row | inhibition [2] [%] | inhibition [6] [%] | inhibition [8] [%] | Structure (SMILES) | ED50 [1] [mg/kg] | ED50 [3] [mg/kg] | ED50 [4] [mg/kg] | TD50 at 0.5 h [5] [mg/kg] | TD50 at 0.25 h [7] [mg/kg]
1 | 50 | – | – | CCC1(c2ccccc2)OC(=O)N(C)C1=O (racemic) | 124 | – | – | – | –
2 | – | – | – | CC(=O)N[C@H](C(=O)NCc1ccccc1)c1ccccc1 | – | > 300 | – | – | –
3 | 45 | – | – | CC[C@@]1(c2ccccc2)OC(=O)N(C)C1=O | 188 | – | 64 | 395 | –
4 | – | 50 | – | O=C1O[C@@]2(c3ccccc3)CCCCCN1C2=O | 45 | – | 50 | 84 | –
5 | – | – | – | CC(=O)N[C@@H](C(=O)NCc1ccccc1)c1ccccc1 | – | 26 | – | – | –
6 | – | 50 | – | O=C1O[C@]2(c3ccccc3)CCCCCN1C2=O | 82 | – | < 400 | – | 334
7 | – | – | 50 | O=C1OC2(c3ccccc3)CCCCCN1C2=O (racemic) | 66 | – | 45 | 147 | –
8 | 49 | – | – | CC[C@]1(c2ccccc2)OC(=O)N(C)C1=O | 122 | – | 69 | 354 | –
9 | 44 | – | – | CCC1(c2ccccc2)OC(=O)NC1=O (racemic) | – | – | – | – | –
10 | 36 | – | – | CC[C@@]1(c2ccccc2)OC(=O)NC1=O | 141 | – | 42 | 155 | –
11 | 46 | – | – | CC[C@]1(c2ccccc2)OC(=O)NC1=O | 91 | – | 108 | 172 | –
